Like-named read-outs stand apart in the source and are kept apart here.
Assay: log P determination by HPLC (reversed-phase C18), EEC Directive 79/831 Annex V.A8
Format: physicochemical
Conditions: pH 2.3
Protocol: The stated log P values were determined in accordance with EEC Directive 79/831 Annex V.A8 by HPLC (High Performance Liquid Chromatography) using a reversed-phase column, (C 18). Temperature: 43° C. Mobile phases for the determination in the acidic range: 0.1% aqueous phosphoric acid, acetonitrile; linear gradient from 10% acetonitrile to 90% acetonitrile. Calibration was carried out using unbranched alkan-2-ones (having 3 to 16 carbon atoms) with known logP values (determination of the logP values by the retention times using linear interpolation between two successive alkanones).

[1] = reversed-phase C18 HPLC column, HPLC, reversed-phase C 18, 43° C., 0.1% aqueous phosphoric acid/acetonitrile, read-out: log P (pH 2.3)

Compound | chromatographic logP [1] | other results
N#CCCCCOC(=O)CSc1nccc(-c2ccccn2)n1 [Example 95] | 2.29 | 
CC(C)=CCOC(=O)CSc1nccc(-c2ccccn2)n1 [Example 96] | 3.18 | 
CCOCCOC(=O)CSc1nccc(-c2ccccn2)n1 [Example 98] | 2.34 | 
O=C(CSc1nccc(-c2ccccn2)n1)OCCN1CCCCC1 [Example 99] | 1.04 | 
CCCCOC(=O)CSc1nccc(-c2ccccn2)n1 [Example 100] | 3.07 | 
COC(=O)CSc1nc(-c2ccccn2)cc(-c2ccccn2)n1 [Example 101] | 2.81 | 
CCOC(=O)CSc1nccc(-c2cc(C)ccn2)n1 [Example 102] | 2.2 | 
COC(=O)CSc1nccc(-c2cc(C)ccn2)n1 [Example 103] | 1.8 | 
CCOC(=O)CSc1nccc(-c2cccc(OCC)n2)n1 [Example 104] | 3.67 | 
CCOC(=O)CSc1nccc(-c2cccc(C)n2)n1 [Example 105] | 2.46 | 
COC(=O)CSc1nc(-c2ccccn2)cc(-c2ccco2)n1 [Example 106] | 3.01 | 
COC(=O)CSc1nc(-c2ccc(OC)cc2)cc(-c2ccccn2)n1 [Example 107] | 3.5 | 
COC(=O)C[S+]([O-])c1nccc(-c2ccccn2)n1 (centres unmarked) [Example 108] | 0.89 | 
COC(=O)CSc1nc(-c2ccccc2)cc(-c2ccccn2)n1 [Example 109] | 3.57 | 
O=C(CSc1nccc(-c2ccccn2)n1)OCCCN1CCCCC1 [Example 110] | 1.13 | 
CCOC(=O)CSc1nccc(-c2cccc(Cl)n2)n1 [Example 111] | 3.19 | 
COC(=O)CSc1nc(-c2ccccn2)cc(C(C)C)n1 [Example 112] | 3.11 | 
CCOC(=O)C(F)Sc1nccc(-c2ccccn2)n1 (centres unmarked) [Example 113] | 2.55 | 
COC(=O)CSc1nc(-c2ccccn2)cc(C(F)(F)F)n1 [Example 114] | 3.34 | 
CCOC(=S)CSc1nccc(-c2ccccn2)n1 [Example 115] | 3.3 | 
O=C(CSc1nccc(-c2ccccn2)n1)OCC(F)F [Example 116] | 2.25 | 
O=C(CSc1nccc(-c2ccccn2)n1)OCC(F)(F)F [Example 117] | 2.69 | 

Compound | chromatographic logP [1] | other results
O=C(CSc1nccc(-c2ccccn2)n1)OCC(F)(F)C(F)(F)F [Example 118] | 3.24 | 
O=C(CSc1nccc(-c2ccccn2)n1)OCC(F)(F)C(F)(F)C(F)(F)F [Example 119] |  | chromatographic logP (HPLC, reversed-phase C 18, 43° C., 0.1% aqueous phosphoric acid/acetonitrile, read-out: log P (pH 2.3)): 3.37
O=C(CSc1nccc(-c2ccccn2)n1)OC(C(F)(F)F)C(F)(F)F [Example 120] | 3.59 | 
CC(OC(=O)CSc1nccc(-c2ccccn2)n1)C(F)(F)F (centres unmarked) [Example 121] | 3.06 | 
O=C(CSc1nccc(-c2ccccn2)n1)OCCC(F)(F)F [Example 122] | 2.26 | 
O=C(CSc1nccc(-c2ccccn2)n1)OCC(Cl)Cl [Example 123] | 2.78 | 
O=C(CSc1nccc(-c2ccccn2)n1)OCc1ccc(Cl)nc1 [Example 124] | 2.31 | 
O=C(CSc1nccc(-c2ccccn2)n1)OCC(Cl)(Cl)Cl [Example 125] | 3.31 | 
O=C(CSc1nccc(-c2ccccn2)n1)OCCCl [Example 126] | 2.29 | 
O=C(CSc1nccc(-c2ccccn2)n1)OC1COCOC1 [Example 127] | 1.76 | 
CCOC(=O)CSc1nccc(-c2ccc(C)cn2)n1 [Example 128] | 2.5 | 
CC(C)(C)C(=O)OCCNC(=O)NCCCOC(=O)CSc1nccc(-c2ccccn2)n1 [Example 129] | 2.51 | 
CC(C)(C)c1ccc(NC(=O)NCCCOC(=O)CSc2nccc(-c3ccccn3)n2)cc1 [Example 130] | 3.51 | 
CC(C)COC(=O)c1cccc(NC(=O)NCCCOC(=O)CSc2nccc(-c3ccccn3)n2)c1 [Example 131] | 3.45 | 
O=C(NCCCOC(=O)CSc1nccc(-c2ccccn2)n1)Nc1cccc2c1CCCC2 [Example 133] | 3.06 | 
NNC(=O)CSc1nccc(-c2ccccn2)n1 [Example 134] | 0.43 | 
O=C(CSc1nccc(-c2ccccn2)n1)N/N=C/c1ccc([N+](=O)[O-])cc1 [Example 135] | 2.23 | 
CC(C)=NNC(=O)CSc1nccc(-c2ccccn2)n1 [Example 136] | 0.44 | 
O=C(CSc1nccc(-c2ccccn2)n1)NCc1cc(C(F)(F)F)cc(C(F)(F)F)c1 [Example 137] | 3.22 | 
O=C(CSc1nccc(-c2ccccn2)n1)NCc1ccccc1SC(F)(F)F [Example 138] | 2.92 | 
O=C(NCCCOC(=O)CSc1nccc(-c2ccccn2)n1)Nc1ccc(Cl)cc1Cl [Example 139] | 3.2 | 
CS(=O)(=O)NC(=O)CSc1nccc(-c2ccccn2)n1 [Example 140] | 1.13 | 

Compound | chromatographic logP [1] | other results
CC(C)(C)OC(=O)NCCOC(=O)CSc1nccc(-c2ccccn2)n1 [Example 141] | 2.63 | 
CC(C)(C)OC(=O)NCCCOC(=O)CSc1nccc(-c2ccccn2)n1 [Example 142] | 2.79 | 
N#Cc1ccc(NC(=O)NCCOC(=O)CSc2nccc(-c3ccccn3)n2)cc1 [Example 146] | 2.3 | 
O=C(NCCOC(=O)CSc1nccc(-c2ccccn2)n1)Nc1ccc(C(F)(F)F)cc1 [Example 147] | 3.04 | 
CC(C)(C)c1ccc(NC(=O)NCCOC(=O)CSc2nccc(-c3ccccn3)n2)cc1 [Example 148] | 3.35 | 
CC(C)COC(=O)c1cccc(NC(=O)NCCOC(=O)CSc2nccc(-c3ccccn3)n2)c1 [Example 149] | 3.01 | 
CCOC(=O)c1cc(NC(=O)NCCOC(=O)CSc2nccc(-c3ccccn3)n2)ccc1Cl [Example 150] | 4.95 | 
O=C(NCCOC(=O)CSc1nccc(-c2ccccn2)n1)Nc1cccc2c1CCCC2 [Example 151] | 2.94 | 
N#Cc1ccc(NC(=O)NCCCOC(=O)CSc2nccc(-c3ccccn3)n2)cc1 [Example 152] | 2.45 | 
O=C(NCCCOC(=O)CSc1nccc(-c2ccccn2)n1)Nc1ccc(C(F)(F)F)cc1 [Example 153] | 3.2 | 
O=C(CSc1nccc(-c2ccccn2)n1)OCC1CCCC1 [Example 154] | 3.6 | 
CC1(COC(=O)CSc2nccc(-c3ccccn3)n2)COC1 [Example 158] | 1.98 | 
O=C(CSc1nccc(-c2ccccn2)n1)OCC1CCCCC1 [Example 159] | 4 | 
O=C(CSc1nccc(-c2ccccn2)n1)OCCN1CCNC1=S [Example 160] | 1.59 | 
CC(CN1CCOCC1)OC(=O)CSc1nccc(-c2ccccn2)n1 (centres unmarked) [Example 161] | 1.16 | 
NC(=O)COC(=O)CSc1nccc(-c2ccccn2)n1 [Example 163] | 1.11 | 
COC(COC(=O)CSc1nccc(-c2ccccn2)n1)OC [Example 164] | 2.05 | 
O=C(CSc1nccc(-c2ccccn2)n1)OCCCN1CCCC1=O [Example 165] | 1.64 | 
C=CC(C)(C)COC(=O)CSc1nccc(-c2ccccn2)n1 [Example 168] | 3.48 | 
CCNC(=S)NCCOC(=O)CSc1nccc(-c2ccccn2)n1 [Example 172] | 1.79 | 
O=C(CSc1nccc(-c2ccccn2)n1)OC1CS(=O)(=O)C1 [Example 173] | 1.67 | 
COCNC(=O)OCCOC(=O)CSc1nccc(-c2ccccn2)n1 [Example 175] | 1.64 | 

Compound | chromatographic logP [1] | other results
Cc1cnn(CCOC(=O)CSc2nccc(-c3ccccn3)n2)n1 [Example 176] | 1.93 | 
NC(=O)OCCOC(=O)CSc1nccc(-c2ccccn2)n1 [Example 177] |  | chromatographic logP: 1.41
CN(C)C(=O)SCCOC(=O)CSc1nccc(-c2ccccn2)n1 [Example 178] | 2.2 | 
COC(C)(C)COC(=O)CSc1nccc(-c2ccccn2)n1 [Example 179] | 2.29 | 
CSCC(C)(C)COC(=O)CSc1nccc(-c2ccccn2)n1 [Example 186] | 3.46 | 
CC(=O)NCC(C)OC(=O)CSc1nccc(-c2ccccn2)n1 (centres unmarked) [Example 188] | 1.97 | 
COCC(C)(C)COC(=O)CSc1nccc(-c2ccccn2)n1 [Example 190] | 3.05 | 
CC(C)/C=N/CCOC(=O)CSc1nccc(-c2ccccn2)n1 [Example 191] | 2.02 | 
O=C(CSc1nccc(-c2ccccn2)n1)OCC1COC(=O)O1 (centres unmarked) [Example 192] | 1.63 | 
CC1(C)OCC(CCOC(=O)CSc2nccc(-c3ccccn3)n2)O1 (centres unmarked) [Example 193] | 2.46 | 
CC(C)OC(=O)C(C)OC(=O)CSc1nccc(-c2ccccn2)n1 (centres unmarked) [Example 194] | 2.95 | 
CC(C)(F)COC(=O)CSc1nccc(-c2ccccn2)n1 [Example 196] | 2.66 | 
Cc1scnc1CCOC(=O)CSc1nccc(-c2ccccn2)n1 [Example 197] | 1.79 | 
CCC1(COC(=O)CSc2nccc(-c3ccccn3)n2)CCO1 (centres unmarked) [Example 198] | 2.2 | 
CCOC(=O)C1CC1COC(=O)CSc1nccc(-c2ccccn2)n1 (centres unmarked) [Example 199] | 2.64 | 
COC(=O)CCCOC(=O)CSc1nccc(-c2ccccn2)n1 [Example 200] | 2.21 | 
Cn1ccnc1COC(=O)CSc1nccc(-c2ccccn2)n1 [Example 201] | 1.02 | 
CSC(C)COC(=O)CSc1nccc(-c2ccccn2)n1 (centres unmarked) [Example 203] | 2.78 | 
O=C(CSc1nccc(-c2ccccn2)n1)OCCc1ccncc1 [Example 204] | 1.2 | 
CC(C)(C)C(Cl)COC(=O)CSc1nccc(-c2ccccn2)n1 (centres unmarked) [Example 205] | 3.81 | 
